Read-outs that look alike come from different tables or passages of the source.
Tests used:
[1] = RP-LC chromatographic lipophilicity (logkw); type: physicochemical; details: chromatographic lipophilicity from gradient RP-LC, Luna RP-C18, water/acetonitrile with 0.1% formic acid, 30 °C
CA IX = CA IX (Homo sapiens, UniProt Q16790); assay: Stopped-flow CA-catalysed CO2 hydration inhibition assay; type: biochemical; details: for Ki: sulphonamides with IDs C...

SMILES	logkw [1]	further results
Cc1cc(S(=O)(=O)NC(=N)NCc2ccc(S(N)(=O)=O)cc2)c(SCc2ccccc2)cc1Cl [C98]	3.920	logKi(CA IX) (CA IX; logarithm of Ki (Ki in nM), mean of three determinations): 1.130; Ki (CA IX; read-out: Ki): 23.1 nM; Ki (CA IX; read-out: pKi (exp.) (converted)): 23.1 nM
Cc1cc(S(=O)(=O)NC(=N)NNc2ccc(S(N)(=O)=O)cc2)c(SCc2ccccc2)cc1Cl [C97]	4.090	
Cc1cc(S(=O)(=O)NC(=N)NCc2ccc(S(N)(=O)=O)cc2)c(SCc2ccc(C(F)(F)F)cc2)cc1Cl [C109]	4.590	
Cc1cc(S(=O)(=O)NC(=N)Nc2cccc(S(N)(=O)=O)c2)c(SCc2cccc3ccccc23)cc1Cl [C112]	3.940	
Cc1cc(S(=O)(=O)NC(=N)Nc2ccccc2S(N)(=O)=O)c(SCc2ccccc2)cc1Cl [C96]	4.090	
Cc1cc(S(=O)(=O)NC(=N)Nc2ccccc2S(N)(=O)=O)c(SCc2cccc(C(F)(F)F)c2)cc1Cl [C102]	4.430	
Cc1cc(S(=O)(=O)NC(=N)NCc2ccc(S(N)(=O)=O)cc2)c(SCc2cccc3ccccc23)cc1Cl [C114]	3.990	
Cc1cc(S(=O)(=O)NC(=N)Nc2ccc(S(N)(=O)=O)cc2)c(SCc2cccc3ccccc23)cc1Cl [C111]	3.900	
Cc1cc(S(=O)(=O)NC(=N)NNc2ccc(S(N)(=O)=O)cc2)c(SCc2cccc3ccccc23)cc1Cl [C113]	3.830	
Cc1cc(S(=O)(=O)NC(=N)Nc2cccc(S(N)(=O)=O)c2)c(SCc2ccc(C(F)(F)F)cc2)cc1Cl [C106]	4.540	
Cc1cc(S(=O)(=O)NC(=N)Nc2nnc(S(N)(=O)=O)s2)c(SCc2cccc(C(F)(F)F)c2)cc1Cl [C104]	4.600	
Cc1cc(S(=O)(=O)NC(=N)Nc2ccc(S(N)(=O)=O)cc2)c(SCc2cc(=O)[nH]c3ccccc23)cc1Cl [C115]	3.830	

Source: PMC6151961 (Journal of Enzyme Inhibition and Medicinal Chemistry, 2018)
